From patent US11773057B2, “Naphthalenesulfonamide compound, preparation method, and application” (CHINA PHARMACEUTICAL UNIVERSITY, priority 2019, dated 2023)

target: T1, Keap1-Nrf2 PPI (Keap1 kelch domain protein, FITC labeled Nrf2 9 peptide) (Homo sapiens, UniProt Q14145); assay: Fluorescence polarization based Keap1-Nrf2 PPI competitive inhibition experiment (FP experiment); type: binding; conditions: FP experiment; general formula I / II compounds
T1 construct: 10 μL 12 nm Keap1 kelch domain protein
Protocol: 1. Keap1-Nrf2 PPI Competitive Inhibition Test Based on Fluorescence Polarization (FP Experiment)
The 384-well blackboard model 3676 produced by Corning is used in FP experiment, with a total volume of reaction of 40 μL. 20 μL compound, 10 μL 4 nm FITC labeled Nrf2 9 peptide, 10 μL 12 nm Keap1 kelch domain protein are added to the well in order. 20 μL 200 nM DDO-1002, 10 μL 4 nM of the FITC-labeled Nrf2 9 peptide, 10 μL 12 nM of Keap1 Ketch domain protein are used in the positive control; 20 μL HEPES buffer, 10 μL 4 nM of the FITC-labeled Nrf2 9 peptide, 10 μL, 12 nM of Keap1 Kelch domain protein are used in the negative control; 10 μL 4 nM of the FITC-labeled Nrf2 9 peptide, 30 μL of HEPES buffer are used in the blank control. After addition is complete, they are incubated for 30 min at room temperature. The detection instrument is a SpectraMax Multi-Mode Microplate Reader (Molecular Devices), the excitation light wavelength selected is 485 nm, the emission light wavelength is 545 nm, and the fluorescence intensity in the horizontal and vertical directions is detected to calculate the polarization value. The inhibition rate is calculated as: inhibition %=[…]/(Pmax−Pmin) wherein Pobs is the polarization value of the compound well, Pmax is the polarization value of the negative control well, and Pmin is the polarization value of the blank well. Data treatment is performed using GraphPad Prism, and IC50 of the compound is calculated using a concentration-inhibition rate curve. The IC50 values for each compound are as previously described.

T1 sequence (Q14145 321-609 limits assumed): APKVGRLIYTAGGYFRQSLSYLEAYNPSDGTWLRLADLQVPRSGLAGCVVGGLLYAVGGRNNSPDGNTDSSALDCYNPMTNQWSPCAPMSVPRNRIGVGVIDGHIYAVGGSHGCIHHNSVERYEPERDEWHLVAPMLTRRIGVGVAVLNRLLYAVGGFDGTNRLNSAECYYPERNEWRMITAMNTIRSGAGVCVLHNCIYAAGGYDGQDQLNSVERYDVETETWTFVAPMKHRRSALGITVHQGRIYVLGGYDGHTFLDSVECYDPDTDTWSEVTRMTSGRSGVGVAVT

| IC50 [nM] | SMILES |
| --- | --- |
| 1090 | COc1ccc(S(=O)(=O)Nc2ccc(N(Cc3ccccc3C)[C@@H](C)CC(=O)O)c3ccccc23)cc1 [DDO-1170, (S)-3-((4-((4-methoxyphenyl)sulfonamido)naphthalen-1-yl) (2-methylbenzyl)amino) butanoic acid] |
| 3780 | COc1ccc(S(=O)(=O)Nc2ccc(N(Cc3cccc(Cl)c3)[C@@H](C)CC(=O)O)c3ccccc23)cc1 [DDO-1172, (S)-3-((3-chlorobenzyl) (4-((4-methoxyphenyl)sulfonamido)naphthalen-1-yl)amino) butanoic acid] |
| 113 | COc1ccc(S(=O)(=O)N(CC(=O)O)c2ccc(N(Cc3ccccc3C)[C@@H](C)CC(=O)O)c3ccccc23)cc1 [DDO-1171] |
| 75 | COc1ccc(S(=O)(=O)N(CC(=O)O)c2ccc(N(Cc3ccccc3F)[C@@H](C)CC(=O)O)c3ccccc23)cc1 [DDO-1179] |
| 205 | COc1ccc(S(=O)(=O)N(CC(=O)O)c2ccc(N(Cc3cccc(C)c3)[C@@H](C)CC(=O)O)c3ccccc23)cc1 [DDO-1169] |
| 860 | COc1ccc(S(=O)(=O)Nc2ccc(N(Cc3ccccc3)[C@@H](C)CC(=O)O)c3ccccc23)cc1 [DDO-1160] |
| 109 | COc1ccc(S(=O)(=O)N(CC(=O)O)c2ccc(N(Cc3ccccc3Cl)[C@@H](C)CC(=O)O)c3ccccc23)cc1 [DDO-1175, (S)-3-((4-((N-(Carboxymethyl)-4-methoxyphenyl)sulfonamido)naphthalen-1-yl) (2-chlorobenzyl)amino) butanoic acid] |
| 460 | COc1ccc(S(=O)(=O)Nc2ccc(N(Cc3ccccc3F)[C@@H](C)CC(=O)O)c3ccccc23)cc1 [DDO-1178, (S)-3-((2-fluorobenzyl) (4-((4-methoxyphenyl)sulfonamido)naphthalen-1-yl)amino) butanoic acid] |

same assay, conditions: FP experiment; general formula III compounds; unit inferred

| IC50 [nM] | SMILES |
| --- | --- |
| 240 | C#CCN(c1ccc(NS(=O)(=O)c2cccc(OC)c2)c2ccccc12)[C@@H](C)CC(=O)O [DDO-1200, (S)-3-((4-((3-methoxyphenyl)sulfonamido)naphthalen-1-yl)(prop-2-yn-1-yl)amino) butanoic acid] |
| 480 | C#CCN(c1ccc(NS(=O)(=O)c2ccc(C)cc2)c2ccccc12)[C@@H](C)CC(=O)O [DDO-1194, (S)-3-((4-((4-methylphenyl)sulfonamido)naphthalen-1-yl)(prop-2-yn-1-yl)amino) butanoic acid] |
| 95 | C#CCN(c1ccc(NS(=O)(=O)c2ccc(OC)cc2)c2ccccc12)[C@@H](C)CC(=O)O [DDO-1180] |

same assay, conditions: FP experiment; general formula IV compounds

| IC50 [nM] | SMILES |
| --- | --- |
| 27 | C#CCN(c1ccc(N(CC(=O)O)S(=O)(=O)c2ccc(C)cc2C)c2ccccc12)[C@@H](C)CC(=O)O [DDO-1205] |
| 15 | C#CCN(c1ccc(N(CC(=O)O)S(=O)(=O)c2c(C)cc(C)cc2C)c2ccccc12)[C@@H](C)CC(=O)O [DDO-1207, (S)-3-((4-((N-(Carboxymethyl)-2,4,6-trimethylphenyl)sulfonamidyl)naphthalen-1-yl)(prop-2-yn-1-yl)amino) butanoic acid] |
| 170 | C#CCN(c1ccc(N(CC(=O)O)S(=O)(=O)c2ccccc2C)c2ccccc12)[C@@H](C)CC(=O)O [DDO-1203, (S)-3-((4-((N-(Carboxymethyl)-methylphenyl)sulfonamido)naphthalen-1-yl)(prop-2-yn-1-yl)amino) butanoic acid] |

same assay, conditions: FP experiment; general formula V / VI compounds

| IC50 [nM] | SMILES |
| --- | --- |
| 23 | C#CCN(c1ccc(NS(=O)(=O)c2c(C)cc(OC)c(C)c2C)c2ccccc12)[C@@H](C)CC(=O)O [DDO-1218, (S)-3-((4-((4-methoxy-2,3,6-trimethylphenyl)sulfonamido)naphthalen-1-yl) (prop-2-yn-1-yl)amino) butanoic acid] |
| 86 | C#CCN(c1ccc(N(CC(=O)O)S(=O)(=O)c2ccc3c(c2)CCO3)c2ccccc12)[C@@H](C)CC(=O)O [DDO-1223, (S)-3-((4-((N-(Carboxymethyl)-2,3-dihydrobenzofuran)-5-sulfonamido)naphthalen-1-yl)(prop-2-yn-1-yl)amino) butanoic acid] |
| 75 | C#CCN(c1ccc(NS(=O)(=O)c2ccc(OC)c(Cl)c2)c2ccccc12)[C@@H](C)CC(=O)O [DDO-1214] |
